Test results from US20090118286A1, “Heterobicyclic Acrylamides” (Bayer Cropscience AG, priority 2005, published 2009).
Each block holds one molecule with its values, some of them ahead of it.

Assay: log P determination by HPLC (EEC Directive 79/831 Annex V.A8, gradient method)
Format: physicochemical
Conditions: for chromatographic logP: HPLC gradient method, acetonitrile/0.1% strength aqueous phosphoric acid or formic acid, preparation examples, read-out: log P

Compound: CCN(CC)C(=O)/C=C/c1c(-c2cccc(C(F)(F)F)c2)nc2sc(C(F)(F)F)nn12 [Example 0434]
Physical data: log P: 4.42

Compound: CC(C)(C)CCNC(=O)/C=C/c1c(-c2ccccc2Cl)nc2sc(C(C)(C)C)nn12 [Example 0805]
Physical data: logP: 4.4

Compound: COCc1nn2c(/C=C/C(=O)NCC(F)(F)F)c(-c3ccccc3Cl)nc2s1 [Example 0822]
Physical data: logP: 2.72

Compound: CC(C)(C)c1nn2c(/C=C/C(=O)NCC(F)(F)C(F)(F)C(F)(F)F)c(-c3ccccc3Cl)nc2s1 [Example 0815]
Physical data: logP: 4.48

Compound: CCC(NC(=O)C=Cc1c(-c2cccc(C(F)(F)F)c2)nc2sc(C(F)(F)F)nn12)c1ccccc1 (stereo not shown) [Example 0403]
Physical data: log P: 4.72

Compound: CC(ONC(=O)/C=C/c1c(-c2ccccc2Cl)nc2sc(C(F)(F)F)nn12)c1ccccc1 (racemic) [Example 0213]
Physical data (logP): 3.72

Compound: CCCC(C)NC(=O)/C=C/c1c(-c2ccc(F)cc2)nc2sc(C(F)(F)F)nn12 (stereo not shown) [Example 0310]
Physical data: log P: 3.9

Compound: O=C(/C=C/c1c(-c2ccc(Cl)cc2Cl)nc2sc(C(F)(F)F)nn12)N1CCCCC1 [Example 0574]
Physical data: log P: 4.31

Compound: Cc1ccccc1-c1nc2sc(C(F)(F)F)nn2c1/C=C/C(=O)NC1CCCC1 [Example 0235]
Physical data: log P: 3.68

Compound: CCC(CC)NC(=O)/C=C/c1c(-c2ccc(Cl)cc2Cl)nc2sc(C(F)(F)F)nn12 [Example 0567]
Physical data: log P: 4.32

Compound: COCc1nn2c(/C=C/C(=O)NC3CCC(C(F)(F)F)CC3)c(-c3ccccc3Cl)nc2s1 (stereo not shown) [Example 0821]
Physical data: logP: 3.4

Compound: CC(COc1ccccc1)NC(=O)/C=C/c1c(-c2ccccc2Cl)nc2sc(C(F)(F)F)nn12 (racemic) [Example 0194]
Physical data (logP): 4.03

Compound: O=C(/C=C/c1c(-c2cccc(C(F)(F)F)c2)nc2sc(C(F)(F)F)nn12)NC1CCCCC1 [Example 0378]
Physical data: log P: 4.61

Compound: COc1ccc(-c2nc3sc(C(F)(F)F)nn3c2/C=C/C(=O)NC2CCCC2)cc1OC [Example 0658]
Physical data: logP: 3.26

Compound: O=C(/C=C/c1c(-c2cccc(C(F)(F)F)c2)nc2sc(C(F)(F)F)nn12)NCC1CC1 [Example 0379]
Physical data: log P: 3.94

Compound: COCc1nn2c(/C=C/C(=O)NCCC(C)C)c(-c3ccccc3Cl)nc2s1 [Example 0820]
Physical data: logP: 3.12

Compound: O=C(C=Cc1c(-c2ccc(F)cc2Cl)nc2sc(C(F)(F)F)nn12)NC(CC(F)(F)F)c1ccccc1 (stereo not shown) [Example 0609]
Physical data: log P: 4.25

Compound: CC(C)(C)c1nn2c(/C=C/C(=O)NC3CCC3)c(-c3ccccc3Cl)nc2s1 [Example 0808]
Physical data: logP: 3.52

Compound: CC(C)C(C)NC(=O)/C=C/c1c(-c2cccc(Cl)c2)nc2sc(C(F)(F)F)nn12 (stereo not shown) [Example 0094]
Physical data (logP): 4.32

Compound: CC(NC(=O)/C=C/c1c(-c2ccc(Cl)cc2)nc2sc(C(F)(F)F)nn12)c1ccccn1 (stereo not shown) [Example 0052]
Physical data (logP): 2.77

Compound: CC(NC(=O)/C=C/c1c(-c2ccc(F)cc2)nc2sc(C(F)(F)F)nn12)c1ccccc1 (stereo not shown) [Example 0331]
Physical data: log P: 3.9

Compound: CCC(NC(=O)C=Cc1c(-c2ccccc2C)nc2sc(C(F)(F)F)nn12)C1CCCCC1 (stereo not shown) [Example 0267]
Physical data: log P: 4.92

Compound: COCc1nn2c(/C=C/C(=O)Nc3ccc(OC(F)(F)F)cc3)c(-c3ccccc3Cl)nc2s1 [Example 0834]
Physical data: logP: 4

Compound: C[C@@H](CS(C)(=O)=O)NC(=O)/C=C/c1c(-c2ccc(Cl)cc2Cl)nc2sc(C(F)(F)F)nn12 [Example 0003, (2E)-3-[6-(2,4-Dichlorophenyl)-2-(trifluoromethyl)imidazo[2,1-b][1,3,4]thiadiazol-5-yl]-N-[(1S)-1-methyl-2-(methylsulphonyl)ethyl]acrylamide]
chromatographic logP: 3.03

Compound: O=C(/C=C/c1c(-c2ccc(F)cc2)nc2sc(C(F)(F)F)nn12)NC1CCC1 [Example 0305]
Physical data: log P: 3.41

Compound: COCc1nn2c(/C=C/C(=O)Nc3ccc(C(F)(F)F)cc3)c(-c3ccccc3Cl)nc2s1 [Example 0835]
Physical data: logP: 3.99

Compound: O=C(/C=C/c1c(-c2cccc(C(F)(F)F)c2)nc2sc(C(F)(F)F)nn12)NC1CCCC1 [Example 0377]
Physical data: log P: 4.27

Compound: COCc1nn2c(/C=C/C(=O)NCC(F)(F)C(F)(F)F)c(-c3ccccc3Cl)nc2s1 [Example 0836]
Physical data: logP: 3.17

Compound: CCC(NC(=O)C=Cc1c(-c2ccccc2Cl)nc2sc(C(F)(F)F)nn12)c1ccccc1 (stereo not shown) [Example 0190]
Physical data (logP): 4.08

Compound: O=C(/C=C/c1c(-c2cccc(Cl)c2)nc2sc(C(F)(F)F)nn12)N1CCCCC1 [Example 0141]
Physical data (logP): 4.37

Compound: COCC(C)NC(=O)/C=C/c1c(-c2cccc(C(F)(F)F)c2)nc2sc(C(F)(F)F)nn12 (stereo not shown) [Example 0382]
Physical data: log P: 3.68

Compound: COCc1nn2c(/C=C/C(=O)NC3CCC3)c(-c3ccccc3Cl)nc2s1 [Example 0830]
Physical data: logP: 2.59

Compound: O=C(/C=C/c1c(-c2ccc(Cl)cc2Cl)nc2sc(C(F)(F)F)nn12)N1CCOCC1 [Example 0575]
Physical data: log P: 3.34

Compound: COc1ccc(-c2nc3sc(C(F)(F)F)nn3c2/C=C/C(=O)NOCC2CC2)cc1OC [Example 0706]
Physical data: logP: 2.88

Compound: CC(C)(C)c1nn2c(/C=C/C(=O)NCC(F)(F)F)c(-c3ccccc3Cl)nc2s1 [Example 0800]
Physical data: logP: 3.61

Compound: O=C(/C=C/c1c(-c2ccc(F)cc2)nc2sc(C(F)(F)F)nn12)NC1CCCC1 [Example 0306]
Physical data: log P: 3.63

Compound: COc1ccc(-c2nc3sc(C(F)(F)F)nn3c2/C=C/C(=O)NC(C)c2ccccn2)cc1OC (stereo not shown) [Example 0698]
Physical data: logP: 2.16

Compound: CC(NC(=O)/C=C/c1c(-c2ccccc2Cl)nc2sc(C(C)(C)C)nn12)C(F)(F)F (stereo not shown) [Example 0795]
Physical data: logP: 3.88

Compound: O=C(/C=C/c1c(-c2ccccc2Cl)nc2sc(C(F)(F)F)nn12)NC1CCCCC1 [Example 0155]
Physical data (logP): 3.9

Compound: CCCC(C)NC(=O)/C=C/c1c(-c2ccc(Cl)cc2)nc2sc(C(F)(F)F)nn12 (stereo not shown) [Example 0017]
Physical data (logP): 4.32

Compound: COc1ccc(-c2nc3sc(C(F)(F)F)nn3c2/C=C/C(=O)NC2CC2)cc1OC [Example 0656]
Physical data: logP: 2.64

Compound: CC(ONC(=O)/C=C/c1c(-c2cccc(C(F)(F)F)c2)nc2sc(C(F)(F)F)nn12)c1ccccc1 (stereo not shown) [Example 0426]
Physical data: log P: 4.37

Compound: CC(COc1ccccc1)NC(=O)/C=C/c1c(-c2cccc(Cl)c2)nc2sc(C(F)(F)F)nn12 (stereo not shown) [Example 0113]
Physical data (logP): 4.56

Compound: COCC(C)NC(=O)/C=C/c1c(-c2ccccc2Cl)nc2sc(C(F)(F)F)nn12 (racemic) [Example 0169]
Physical data (logP): 2.99

The next lines start with the values.

chromatographic logP: 3.15
Compound: O=C(O)/C=C/c1c(-c2ccc(Cl)cc2Cl)nc2sc(C(F)(F)F)nn12 [VA-1, (2E)-3-[6-(2,4-Dichlorophenyl)-2-(trifluoromethyl)imidazo[2,1-b][1,3,4]thiadiazol-5-yl]acrylic Acid]

Physical data (logP): 3.01
Compound: O=C(O)/C=C/c1c(-c2ccc(F)cc2Cl)nc2sc(C(F)(F)C(F)F)nn12 [VA134]

Physical data (logP): 4.63
Compound: O=Cc1c(-c2ccc(-c3ccc(Cl)cc3)cc2)nc2sc(C(F)(F)F)nn12 [IVA119]

Physical data (logP): 2.54
Compound: O=C(O)/C=C/c1c(-c2cncc(Br)c2)nc2sc(C(F)(F)F)nn12 [VA117]

Physical data: logP: 3.66
Compound: Cc1csc2nc(-c3ccccc3Cl)c(/C=C/C(=O)Nc3ccc(OC(F)(F)F)cc3)n12 [Example 0900]

Physical data: logP: 3.09
Compound: Cc1cn2c(/C=C/C(=O)NCC(F)(F)C(F)(F)F)c(-c3ccccc3Cl)nc2s1 [Example 0880]

Physical data: logP: 3.32
Compound: CC(NC(=O)/C=C/c1c(-c2ccc(Cl)nc2)nc2sc(C(F)(F)F)nn12)C(F)(F)F (racemic) [Example 0935]

Physical data: logP: 4.83
Compound: CC(NC(=O)/C=C/c1c(-c2ccccc2Cl)nc2sc(-c3ccc(C(F)(F)F)cc3)nn12)C(C)(C)C (stereo not shown) [Example 0848]

Physical data (logP): 2.55
Compound: O=C(O)/C=C/c1c(-c2ccccc2F)nc2sc(C(F)(F)F)nn12 [VA-8]

Physical data: logP: 2.26
Compound: Cc1csc2nc(-c3ccccc3Cl)c(/C=C/C(=O)NC3CCC3)n12 [Example 0896]

Physical data (logP): 2.41
Compound: O=C(O)/C=C/c1c(-c2ccccc2Cl)nc2sc(C(F)F)nn12 [VA-14]

Physical data: logP: 4.19
Compound: CC(NC(=O)/C=C/c1c(-c2ccc(F)cc2Cl)nc2sc(C(F)(F)C(F)(F)F)nn12)C(F)(F)F (racemic) [Example 0974]

Physical data (logP): 4.02
Compound: O=Cc1c(-c2ccc(OCc3ccccc3)cc2)nc2sc(C(F)(F)F)nn12 [IVA120]

Physical data: logP: 2.89
Compound: Cc1cn2c(/C=C/C(=O)NCC(C)(C)C)c(-c3ccccc3Cl)nc2s1 [Example 0863]

Physical data: logP: 4.62
Compound: CC(C)C(NC(=O)C=Cc1c(-c2ccccc2Cl)nc2sc(C(F)(F)C(F)(F)F)nn12)C(F)(F)F (stereo not shown) [Example 0962]

Physical data (logP): 4.22
Compound: O=C(O)/C=C/c1c(-c2ccc(Oc3ccc(Cl)cc3)cc2)nc2sc(C(F)(F)F)nn12 [VA124]

Physical data: logP: 3.05
Compound: Cc1cn2c(/C=C/C(=O)NC3CCCCC3)c(-c3ccccc3Cl)nc2s1 [Example 0876]

Physical data: logP: 3.22
Compound: Cc1csc2nc(-c3ccccc3Cl)c(/C=C/C(=O)NCC(F)(F)C(F)(F)C(F)(F)F)n12 [Example 0903]

Physical data: logP: 2.67
Compound: Cc1csc2nc(-c3ccccc3Cl)c(/C=C/C(=O)NCC(C)(C)C)n12 [Example 0885]

Physical data (logP): 4.56
Compound: O=Cc1c(-c2ccc(Oc3ccc(Cl)cc3)cc2)nc2sc(C(F)(F)F)nn12 [IVA122]

Physical data: logP: 2.47
Compound: CC(C)NC(=O)/C=C/c1c(-c2cccnc2Cl)nc2sc(C(F)(F)F)nn12 [Example 0946]

Physical data: logP: 2.4
Compound: Cc1csc2nc(-c3ccccc3Cl)c(/C=C/C(=O)NCC(C)C)n12 [Example 0882]

Physical data (logP): 4.46
Compound: O=C(O)/C=C/c1c(-c2ccc(-c3ccc(OC(F)(F)F)cc3)cc2)nc2sc(C(F)(F)F)nn12 [VA123]

Physical data (logP): 4.26
Compound: O=C(O)/C=C/c1c(-c2ccc(-c3ccc(Cl)cc3)cc2)nc2sc(C(F)(F)F)nn12 [VA121]

Physical data: logP: 2.7
Compound: Cc1cn2c(/C=C/C(=O)NC3CCCC3)c(-c3ccccc3Cl)nc2s1 [Example 0875]

Physical data: logP: 3.59
Compound: COCc1nn2c(/C=C/C(=O)NCC(F)(F)C(F)(F)C(F)(F)F)c(-c3ccccc3Cl)nc2s1 [Example 0837]
